Experimental data reported in patent publication US20130252930A1 (BIOMARIN PHARMACEUTICAL INC., priority 2010, published 2013).
Like-named read-outs stand apart in the source and are kept apart here.

Key:
[1] = target: T1, CYP17 (human testicular microsome) (Homo sapiens, UniProt P05093); test: CYP17 enzymatic assay (% inhibition at 10 nM), version 1 (Biological Example 5); format: biochemical; details: 10 nM compound, DHEA by ELISA, read-out: Biological Example No. 5: CYP17 percent inhibition at 10 nM (version 1)
T1 construct: using microsomal fraction from human testis (Celsis Cat #S00110) as the enzyme source; tissue Celsis S00110; host or cells: human testis microsomal fraction
T1 sequence (P05093 1-508): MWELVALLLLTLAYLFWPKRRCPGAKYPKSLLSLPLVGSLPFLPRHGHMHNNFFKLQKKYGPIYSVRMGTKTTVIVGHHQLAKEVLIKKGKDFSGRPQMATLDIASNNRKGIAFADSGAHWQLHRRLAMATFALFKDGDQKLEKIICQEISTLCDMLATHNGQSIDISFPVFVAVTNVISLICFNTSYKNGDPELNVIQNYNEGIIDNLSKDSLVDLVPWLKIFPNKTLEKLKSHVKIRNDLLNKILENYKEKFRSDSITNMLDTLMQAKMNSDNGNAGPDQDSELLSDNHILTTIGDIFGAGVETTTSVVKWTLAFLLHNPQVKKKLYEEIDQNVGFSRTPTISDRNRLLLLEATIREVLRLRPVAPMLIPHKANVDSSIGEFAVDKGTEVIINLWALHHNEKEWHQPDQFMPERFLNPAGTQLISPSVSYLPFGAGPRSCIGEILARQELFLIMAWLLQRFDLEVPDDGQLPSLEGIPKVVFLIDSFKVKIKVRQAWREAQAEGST

[2] = tested on: rat Cyp11B enzyme (rat adrenal mitochondria); test: CYP11B enzymatic assay (% inhibition at 100 nM) (Biological Example 9); format: biochemical; details: for Biological Example No. 9: CYP11B percent inhibition at 100 nM: 100 nM compound, cortisol by ELISA; for CYP11B enzymatic assay % inhibition at 100 nM (Biological Example No. 9): compound at 100 nM
In short: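 Sprague Dawley rat adrenal mitochondria were incubated with compound at 100 nM, 0.5 mM NADPH and 0.1 μM 11-deoxycortisol (pH 7.4 Tris buffer) for 60 min at 37 °C. Cortisol was measured by ELISA and corrected by subtracting the no-NADPH background. % inhibition is relative to the no-compound reaction.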

[3] = target: T2, Cyp21 enzyme (Human HEK 293-Cyp21 stable transfected cells) (Homo sapiens, UniProt P08686); test: CYP21-HEK293 enzymatic assay (% inhibition at 100 nM) (Biological Example 10); format: cell-based; details: HEK 293-Cyp21 cells
T2 construct: expressed in transfected cells
T2 sequence (P08686 1-495): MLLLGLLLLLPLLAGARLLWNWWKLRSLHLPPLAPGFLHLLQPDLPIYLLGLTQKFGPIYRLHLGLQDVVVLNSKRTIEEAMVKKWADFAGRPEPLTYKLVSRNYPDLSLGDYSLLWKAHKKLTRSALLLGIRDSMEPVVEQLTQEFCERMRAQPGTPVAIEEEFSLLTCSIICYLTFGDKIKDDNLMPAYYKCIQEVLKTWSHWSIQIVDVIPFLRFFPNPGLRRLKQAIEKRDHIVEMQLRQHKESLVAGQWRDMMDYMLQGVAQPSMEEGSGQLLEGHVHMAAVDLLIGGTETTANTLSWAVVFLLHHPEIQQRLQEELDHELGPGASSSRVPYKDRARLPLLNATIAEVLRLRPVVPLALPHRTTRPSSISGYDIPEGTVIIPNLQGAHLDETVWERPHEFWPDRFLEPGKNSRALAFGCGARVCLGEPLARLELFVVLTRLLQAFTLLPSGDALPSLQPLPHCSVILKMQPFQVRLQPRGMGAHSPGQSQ
Protocol: Proceeding using methods similar to those described in Biological Example 11, the percent inhibition at 100 nM was measured.
This assay was used to determine compound activity against Cyp21 enzyme. Human HEK 293-Cyp21 stable transfected cells (maintained in complete growth media DMEM+10% FBS, supplemented with 125 ug/mL Hygromycin) were seeded in a 96-well plate at 20,000 cells/well/100 uL in DMEM plus 10% FBS and allowed to attach overnight. The next day, 20 μL medium was carefully removed and 10 μL of 10× pre-made compounds in DMEM+10% FBS+10% methanol was transferred to the wells to final concentrations of 1000, 100, 10, 1, or 0.1 nM. Mock treatment was 1% methanol in growth media and the cells were left at 37° C., 5% CO2 for 5 hr. After the incubation, 10 μL of substrate progesterone (Sigma) was added to the wells to make a final concentration of 10 μM. The cells were incubated the cells at 37° C. for 20 hr. At the end of incubation, 90 μL of conditioned media was removed to measure DOC level by ELISA.
Preparation of the DOC ELISA: 100 μL of coating buffer (0.025M PBS pH 7.4) containing 200 ng/mL DOC-3-carboxymethyloxime-BSA (Steraloids. inc, Cat#3469-000) was added to each well of a 96-well plate and incubated overnight at 4° C. The next day, the plates were washed twice with 250 μl of wash solution (0.015M PBS pH 7.4 containing 0.05% Tween 20). After being washed, the wells were blocked with 250 μL blocking buffer (3% BSA in 0.025M PBS, pH 7.4) at 37° C. for 2 h. The plates were washed again 3 times as before, and then 90 μL of sample /standards (prepared in complete growth media) was added into the appropriate wells followed by 10 μL of antibody solution (1:450 rabbit anti-DOC in 0.6% BSA/PBS). The plates were incubated at room temperature for 2 h on a shaker. The contents of the wells were removed and the plate was washed 4 times. After the final wash, 100 μL of secondary antibody (1:12000 HRP-goat-anti-rabbit IgG conjugate 0.6% BSA/PBS) was added into each well. The plate was incubated at 30° C. for 45 min. The plate was washed again 4 times and 100 μL of TMB substrate solution was added to each well. The plate was incubated at room temperature for 10 min. 100 μL of stop solution was added to each well and the optical density was read at 450 nm.
The mean absorbance value for each sample was used to determine the corresponding concentration from the standard curve. Data was analyzed with “log(antagonist) vs response variable slope” under “non-linear regression analysis” using Prism5 software.

[4] = target: T1, CYP17 (human testicular microsome); test: CYP17 enzymatic assay (IC50) (Biological Example 4); format: biochemical; details: human testicular microsome
[5] = Human liver microsome stability assay (Biological Example 8b); details: liver microsomes, pH 7.4
[6] = target: T1, CYP17 (human testicular microsome); test: CYP17 enzymatic assay (% inhibition at 1 nM) (Biological Example 12); format: biochemical; details: compound at 1 nM, read-out: CYP17 enzymatic assay % inhibition at 1 nM (Biological Example No. 12)
[7] = target: T2, Cyp21 enzyme (Human HEK 293-Cyp21 stable transfected cells); test: CYP21-HEK293 enzymatic assay (IC50) (Biological Example 11); format: cell-based; details: HEK 293-Cyp21 cells; read-out: CYP21-HEK293 enzymatic assay IC50 (Biological Example No. 11)
[8] = 100 nM compound, read-out: Biological Example No. 10: CYP21-HEK293 percent inhibition at 100 nM
[9] = DHEA by ELISA, read-out: Biological Example No. 4: CYP17 enzymatic assay IC50
[10] = read-out: CYP17 enzymatic assay IC50 (Biological Example No. 4)
[11] = compound at 100 nM, read-out: CYP21-HEK293 enzymatic assay % inhibition at 100 nM (Biological Example No. 10)

SMILES	inhibition at 0.01 µM [1] [%]	inhibition at 0.1 µM [3, 8] [%]	half-life at 1 μM [5] [min]	inhibition at 0.1 µM [3, 11] [%]	inhibition at 0.001 µM [6] [%]	also measured
COC(=O)NC1CC[C@@]2(C)C(=CCC3C2CC[C@]2(C)C(n4ccnc4)=CCC32)C1 (stereo partly drawn) [Compound 239, methyl ((10R,13S)-17-(1H-imidazol-1-yl)-10,13-dimethyl-2,3,4,7,8,9,10,11,12,13,14,15-dodecahydro-1H-cyclopenta[a]phenanthren-3-yl)carbamate]	–	–	–	< 30	> 50	IC50 [4, 10]: < 11 nM; CYP11B enzymatic assay % inhibition at 100 nM (Biological Example No. 9) [2]: T (T means the compound had a percent inhibition of less than 32% when tested at 100 nM)
CC(=O)N[C@@H]1CC[C@@]2(C)C(=CC[C@H]3C4=CC=C(n5ccnc5)[C@@]4(C)CC[C@@H]32)C1 [Compound 245, N-((3R,10R,13S)-17-(1H-imidazol-1-yl)-10,13-dimethyl-2,3,4,7,8,9,10,11,12,13-decahydro-1H-cyclopenta[a]phenanthren-3-yl)acetamide]	–	–	–	< 30	10 to 50	CYP11B enzymatic assay % inhibition at 100 nM (Biological Example No. 9) [2]: T (T means the compound had a percent inhibition of less than 32% when tested at 100 nM)
C[C@]12CC[C@H]3[C@@H](CC=C4C[C@H](NC(=O)C5CC5)CC[C@@]43C)C1=CC=C2n1ccnc1 [Compound 246, N-((3R,10R,13S)-17-(1H-imidazol-1-yl)-10,13-dimethyl-2,3,4,7,8,9,10,11,12,13-decahydro-1H-cyclopenta[a]phenanthren-3-yl)cyclopropanecarboxamide]	–	–	–	< 30	10 to 50	CYP11B enzymatic assay % inhibition at 100 nM (Biological Example No. 9) [2]: U (U means the compound had a percent inhibition of greater than or equal to 32%)
CON=C1C=C2CCC3C4=CC=C(c5cccnc5)[C@@]4(C)CCC3[C@@]2(C)CC1 (stereo partly drawn) [Compound 287, (10R,13S)-10,13-dimethyl-17-(pyridin-3-yl)-6,7,8,9,10,11,12,13-octahydro-1H-cyclopenta[a]phenanthren-3(2H)-one O-methyl oxime]	–	–	> 50	≥ 30	10 to 50	IC50 [4, 10]: < 11 nM; IC50 [7]: > 100 nM
C[C@]12CCC3C(CCC4=CC(=NO)CC[C@@]43C)C1=CC=C2c1cccnc1 (stereo partly drawn) [Compound 288, (10R,13S)-10,13-dimethyl-17-(pyridin-3-yl)-6,7,8,9,10,11,12,13-octahydro-1H-cyclopenta[a]phenanthren-3(2H)-one oxime]	–	–	1 to 50	< 30	> 50	IC50 [4, 10]: < 11 nM

Continued, in another order:

inhibition at 0.01 µM [1] [%]	inhibition at 0.1 µM [3, 8] [%]	half-life at 1 μM [5] [min]	SMILES	inhibition at 0.1 µM [3, 11] [%]	inhibition at 0.001 µM [6] [%]	also measured
1 to 50	< 30	–	C[C@]12CC[C@H]3[C@@H](CCN4CCCCC[C@]34C)[C@@H]1CC=C2c1cccnc1 [Compound 44, (11aR,13aS)-11a,13a-dimethyl-1-(pyridin-3-yl)-3a,3b,4,5,7,8,9,10,11,11a,11b,12,13,13a-tetradecahydro-3H-azepino[2,1-a]cyclopenta[f]isoquinoline]	–	–	Biological Example No. 9: CYP11B percent inhibition at 100 nM [2]: na (“na” means the compound was not active under the conditions tested)
> 80	≥ 30	1 to 50	C[C@]12CCCC(=O)CC1=CCC1[C@@H]2CC[C@]2(C)C(n3ccnc3)=CC[C@@H]12 (stereo partly drawn) [Compound 107, (3aS,10aR,10bS,12aS)-1-(1H-imidazol-1-yl)-10a,12a-dimethyl-3,3a,3b,4,8,9,10,10a,10b,11,12,12a-dodecahydrocyclohepta[a]cyclopenta[f]naphthalen-7(6H)-one]	–	–	IC50 [4, 9]: < 11 nM
> 80	≥ 30	1 to 50	C[C@]12CCCC(=O)CC1=CC[C@@H]1[C@@H]2CC[C@]2(C)C(c3cnccn3)=CC[C@@H]12 [Compound 142, 10a,12a-dimethyl-1-(pyrazin-2-yl)-3,3a,3b,4,8,9,10,10a,10b,11,12,12a-dodecahydrocyclohepta[a]cyclopenta[f]naphthalen-7(6H)-one]	–	–	–
1 to 50	< 30	–	CN1CC=C2CC[C@@H]3[C@H](CC[C@]4(C)C(c5cccnc5)=CC[C@@H]34)[C@@]2(C)CC1 [Compound 147, (5aR,7aS)-2,5a,7a-trimethyl-8-(pyridin-3-yl)-2,3,4,5,5a,5b,6,7,7a,10,10a,10b,11,12-tetradecahydrocyclopenta[5,6]naphtho[2,1-c]azepine]	–	–	Biological Example No. 9: CYP11B percent inhibition at 100 nM [2]: na (“na” means the compound was not active under the conditions tested)
–	< 30	–	C[C@]12CCC(=O)NC=C1CCC1C2CC[C@]2(C)C(n3cnnn3)=CCC12 (stereo partly drawn) [Compound 156, (5aR,7aS)-5a,7a-dimethyl-8-(1H-tetrazol-1-yl)-4,5,5a,5b,6,7,7a,10,10a,10b,11,12-dodecahydrocyclopenta[5,6]naphtho[2,1-c]azepin-3(2H)-one]	–	–	Biological Example No. 9: CYP11B percent inhibition at 100 nM [2]: U (U means the compound had a percent inhibition of greater than or equal to 32%)
> 80	≥ 30	1 to 50	COc1cncc(C2=CC=C3[C@@H]4CCC5=CC(=O)N(C)CC[C@]5(C)[C@H]4CC[C@]23C)c1 [Compound 159]	–	–	IC50 [4, 9]: < 11 nM
